Test results reported in patent US20090054376A1, “BENZOFURAN DERIVATIVES WITH THERAPEUTIC ACTIVITIES” (Pharmos Corporation, priority 2005, published 2009).
Where two headings read alike, the source gives them in different places.

How the values were obtained:
iNOS = assay: Gene expression in LPS activated RAW 264.7 macrophages, iNOS; format: cell-based, mouse; settings: RAW 264.7, 10 μM, LPS 1 μg/ml, RNA 3 hrs after activation, vs vehicle treated activated cells
Description: RAW 264.7 macrophages, a mouse cell line (ATCC # TIB 71), were grown in Dulbecco's modified Eagle's medium (DMEM) with 4 mM L-glutamine adjusted to contain 1.5 g/L sodium bicarbonate, 4.5 g/L glucose, and 10% heat inactivated fetal bovine serum. Cells were grown in tissue culture flasks and seeded at appropriate density into 6 wells tissue culture plates. Four million Raw cells in half a milliliter were stimulated with 1 μg/ml LPS E. coli 055:B5 (DIFCO Laboratories). The mouse macrophages were pre-treated for one hour with controls or 10 μM of test compounds, and later on activated with LPS. RNA samples were extracted from the cells 3 hrs after activation and gene expression levels were analyzed by real-time RT-PCR. In parallel, supernatants were collected and secretion of inflammatory mediators was analyzed using ELISA techniques according to the instructions of the kit manufacturer.
Total RNA is prepared using SV total RNA isolation system (Promega). The cells were homogenized in lysis buffer. The lysates were transferred to an RNA isolation column, treated with DNAse, washed and eluted according to kit instructions. RNA concentrations were determined using GeneQuant II (Pharmacia-Amersham). Complementary DNA (cDNA) was synthesized from total RNA using […] II reverse transcriptase (Life Technologies). 2 μg of total RNA were combined with an oligo (dT)15 primer, 0.5 mM dNTP mix, 8 units of reverse transcriptase and other reaction components up to a final volume of 20 μl, according to the kit instructions. The reaction mixture was incubated at 42° C. for 45 min and inactivated at 70° C. for 15 minutes. Quantitative real-time RT-PCR included 1 μl of the cDNA, 300 nM of the appropriate forward and reverse primers (according to the gene monitored) and 7.5 μl of the reaction mix containing buffer, nucleotides, Taq polymerase and SYBER green (SYBER Green master mix, Applied Biosystems), in a total reaction volume of 15 μl. Gene amplification was obtained using the GeneAmp 5700 sequence detection system (Applied Biosystems). Amplification included one stage of 10 minutes at 95° C. followed by 40 cycles of a 2-steps loop: 20 seconds at 95° C., and 1 minute at 60° C. During each annealing step, the amount of the amplified product was measured by the fluorescence of the double strand DNA binding dye, SYBER Green. The cycle of threshold (CT), representing the PCR cycle at which an increase in fluorescence above a baseline signal can be first detected, was determined for each product. A delay of one PCR cycle in the CT is translated into a two-fold decrease in starting template molecules and vice versa. The changes in the CT of the specific gene product were normalized to the changes in the CT of housekeeping cyclophilin or GAPDH as reference genes. Results were expressed as fold increase of gene expression in treated or untreated activated cells above the resting cells, after normalization to cyclophilin or GAPDH. Cells were also tested for viability to confirm that any effect on gene expression was indeed due to modulation of transcription of a specific target and not to cytoxicity.
Results were further expressed as percent inhibition of gene expression in compound treated activated cells over vehicle “treated” activated cells. Since the modulation of IL-10 and TNF-α gene expression by the compounds of the invention is relatively minor, it is not reported. […] Inhibition above 50% was considered significant.

[1] = system: carrageenan induced inflammatory pain and paw edema; assay: Inflammatory pain and paw edema induced by carrageenan; format: in vivo, Male Sprague Dawley rats; settings: for inhibition in vivo at 10 mg/kg / inhibition in vivo at 3 mg/kg: Rattus norvegicus, ip; for inhibition in vivo at 3 mg/kg: 3 mg/kg i.p. (one asterisk)
Summary of the method: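 Male Sprague Dawley rats (~200 g) received 0.1 ml 2% λ-carrageenan subplantar in the right paw; compounds given i.p. at 3, 10 or 20 mg/kg (some p.o.) immediately after. Thermal (Hargreaves) latency, mechanical threshold, paw thickness and volume measured at 0 and 3 h; values are inter-paw differences ([…], ΔForce), volume as % of vehicle.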

[2] = 10 mg/kg i.p., 3 hours, mechanical stimulus, read-out: Percent Inhibition of Inflammatory Pain Responses, ΔForce
[3] = 10 mg/kg i.p., 3 hours, thermal stimulus, read-out: Percent Inhibition of Inflammatory Pain Responses, ΔLT
[4] = 10 mg/kg i.p., 3 hours after carrageenan, reduction in paw swelling, read-out: Percent Inhibition of Inflammatory Pain Responses, Edema

Structure (SMILES) | Percent inhibition of gene expression, iNOS (iNOS) | inhibition in vivo at 10 mg/kg [1, 2] [%] | inhibition in vivo at 10 mg/kg [1, 3] [%] | inhibition in vivo at 10 mg/kg [1, 4] [%] | other results
CCCCC(C)(C)c1cc(O)c2c(c1)OC1(C)CCCC21 (stereo not drawn) [Compound C5S-1, 6-(1,1-dimethylpentyl)-8a-methyl-2,3,3a,8a-tetrahydro-1H-8-oxa-cyclopenta[α]inden-4-ol] | 37% |  |  |  | 
CCCCC(C)(C)c1cc(O)c2c(c1)OC1C2CCC(C)(C)C1O (stereo not shown) [Compound C6S-7, 3-(1,1-dimethylpentyl)-7,7-dimethyl-5a,6,7,8,9,9a-hexahydro-dibenzofuran-1,6-diol] |  | 41 | 54 |  | 
CCCCCCC(C)(C)c1cc(O)c2c(c1)OC1(C)CCCC21 (stereo not drawn) [Compound C5S-2, 6-(1,1-dimethylheptyl)-8a-methyl-2,3,3a,8a-tetrahydro-1H-8-oxa-cyclo-penta[α]inden-4-ol] | NO (NO indicates that the compound tested did not significantly affect the transcription of the gene assessed and that its activity is comparable to vehicle, within ±20% from this control) |  |  |  | Percent Inhibition of Inflammatory Pain Responses, Edema ([1]; 10 mg/kg i.p., 3 hours after carrageenan, reduction in paw swelling): 48%; Percent Inhibition of Inflammatory Pain Responses, ΔForce ([1]; 10 mg/kg i.p., 3 hours, mechanical stimulus): 8%; Percent Inhibition of Inflammatory Pain Responses, ΔLT ([1]; 10 mg/kg i.p., 3 hours, thermal stimulus): 43%
CCCCCCC(C)(C)c1cc(O)c2c(c1)OC1C=CCCC21 (stereo not shown) [Compound C6S-2, 3-(1,1-Dimethylheptyl)-5a,8,9,9a-tetrahydro-dibenzofuran-1-ol] | 23% | 30 | 58 | 36 | 
CCCCCCC(C)(C)c1cc(O)c2c(c1)OC1C(O)CCCCC21 (stereo not drawn) [Compound C7S-2, 2-(1,1-dimethylheptyl)-5,6,7,8,9,9a-hexahydro-4bH-10-oxa-benzo[α]azulen-4,9-diol] | NO (NO indicates that the compound tested did not significantly affect the transcription of the gene assessed and that its activity is comparable to vehicle, within ±20% from this control) |  |  |  | reduction of paw swelling ([1]; 5 mg/kg p.o.): 41%; reduction of paw swelling ([1]; 20 mg/kg p.o.): 50%; inhibition in vivo at 3 mg/kg ([1]; 3 hours, mechanical stimulus, read-out: Percent Inhibition of Inflammatory Pain Responses, ΔForce): 66%; inhibition in vivo at 3 mg/kg ([1]; 3 hours, reduction in paw swelling, read-out: Percent Inhibition of Inflammatory Pain Responses, Edema): 56%; inhibition in vivo at 3 mg/kg ([1]; 3 hours, thermal stimulus, read-out: Percent Inhibition of Inflammatory Pain Responses, ΔLT): 66%
CCCCC(C)(C)c1cc(O)c2c(c1)OC1CCCCC21 (stereo not shown) [Compound C6S-3, 3-(1,1-dimethylpentyl)-5a,6,7,8,9,9a-hexahydro-dibenzofuran-1-ol] | 68% | 49 | 84 | 48 | 
CCCCCCC(C)(C)c1cc(O)c2c3c(oc2c1)C(=O)CCC3(C)C [Compound C6M-9, 7-(1,1-Dimethylheptyl)-9-hydroxy-1,1-dimethyl-2,3-dihydro-1H-dibenzofuran-4-one] | 32% | 27 | 75 | 49 | 
